We go through 24 molecules from patent publication US4687775A, “2-[(Imidazo[1,2-a]pyridinylmethyl)sulfinyl]-1H-benzimidazoles” (G. D. Searle & Co., priority 1986, dated 1987).

pIC50: −log10 of the molar value.

The first test concerns gastric acid secretion in gastric fistula beagle dogs. The experiment in a line: Inhibition of Gastric Acid Secretion in Gastric Fistula Beagle Dogs. The format is in vivo. As to conditions: 3 mg/kg dose; i.d. (intraduodenal); histamine-stimulated secretion, four-hour period.
Consider `[O-][S+](Cc1cccn2ccnc12)c1nc2ccccc2[nH]1` (centres unmarked) [Example 3, 2-[(imidazo[1,2-a]pyridin-8-ylmethyl)sulfinyl]-1H-benzimidazole 1/8 hydrate], for which the “Gastric-Fistula Beagle % Inhibition” value came out at 57%.

`Cc1cn2cccc(C[S+]([O-])c3nc4ccccc4[nH]3)c2n1` (centres unmarked) [Example 5]: the “Gastric-Fistula Beagle % Inhibition” value is 16%.

A further test deals with T1, (H^+ +K^+)-ATPase (Canis lupus familiaris, UniProt P50996).
T1 construct: (H^+ +K^+)-ATPase obtained from canine gastric mucosa; from tissue; host or cells: glandular gastric mucosa of mongrel dogs (antral and cardiac regions removed), microsomes from the 15%-30% sucrose interface, lyophilized
T1 sequence (P50996 2-1034 limits assumed): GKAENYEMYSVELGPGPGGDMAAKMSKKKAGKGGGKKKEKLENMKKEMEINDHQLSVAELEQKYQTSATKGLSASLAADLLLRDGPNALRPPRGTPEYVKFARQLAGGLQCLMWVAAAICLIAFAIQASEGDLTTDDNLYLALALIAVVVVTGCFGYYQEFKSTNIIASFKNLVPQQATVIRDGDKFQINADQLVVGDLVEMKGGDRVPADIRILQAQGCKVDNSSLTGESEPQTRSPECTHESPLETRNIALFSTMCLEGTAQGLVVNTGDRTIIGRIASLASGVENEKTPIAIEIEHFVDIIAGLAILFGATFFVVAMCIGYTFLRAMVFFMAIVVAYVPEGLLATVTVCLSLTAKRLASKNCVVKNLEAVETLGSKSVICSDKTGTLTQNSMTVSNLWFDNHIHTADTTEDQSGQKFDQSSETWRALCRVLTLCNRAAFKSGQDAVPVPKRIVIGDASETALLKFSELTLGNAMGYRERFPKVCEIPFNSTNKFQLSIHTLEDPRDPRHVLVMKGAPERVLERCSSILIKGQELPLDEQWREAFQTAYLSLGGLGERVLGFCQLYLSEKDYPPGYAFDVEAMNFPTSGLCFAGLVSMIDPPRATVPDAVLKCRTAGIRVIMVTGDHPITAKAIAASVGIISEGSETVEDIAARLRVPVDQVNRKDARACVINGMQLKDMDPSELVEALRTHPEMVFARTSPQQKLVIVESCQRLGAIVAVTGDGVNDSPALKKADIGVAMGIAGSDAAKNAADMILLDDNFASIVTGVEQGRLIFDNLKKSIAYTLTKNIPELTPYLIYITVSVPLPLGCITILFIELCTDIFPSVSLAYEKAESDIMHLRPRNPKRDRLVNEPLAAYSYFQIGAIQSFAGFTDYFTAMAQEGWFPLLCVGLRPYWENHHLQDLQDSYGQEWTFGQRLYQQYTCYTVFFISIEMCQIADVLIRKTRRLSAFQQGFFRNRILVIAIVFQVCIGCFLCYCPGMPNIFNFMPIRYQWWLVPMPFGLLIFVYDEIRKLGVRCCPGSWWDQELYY
T1 sequence (P33704 whole entry partner): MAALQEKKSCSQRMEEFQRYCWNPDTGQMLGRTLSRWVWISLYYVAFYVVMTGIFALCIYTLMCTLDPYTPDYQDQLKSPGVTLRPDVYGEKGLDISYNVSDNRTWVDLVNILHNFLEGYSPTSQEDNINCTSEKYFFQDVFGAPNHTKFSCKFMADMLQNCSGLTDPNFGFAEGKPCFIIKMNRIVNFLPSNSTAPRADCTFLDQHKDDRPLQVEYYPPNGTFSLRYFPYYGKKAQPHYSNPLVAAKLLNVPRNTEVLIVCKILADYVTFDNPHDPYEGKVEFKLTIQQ
In words: Inhibition of (H^+ +K^+)-ATPase from Canine Gastric Mucosa. The following applies: canine gastric mucosa microsomes; pH 6.0; 30 min preincubation with compound at 37°; K^+-stimulated minus basal activity. It counts as biochemical, canine (mongrel dogs). As for the experimental part: Inhibition of (H^+ +K^+)-ATPase from Canine Gastric Mucosa
Mongrel dogs weighing 15 to 25 kilograms were fasted for twenty-four hours, with water provided ad libitum. The animals were anesthetized with pentobarbital and the stomachs were removed. Subsequent tissue manipulations and subcellular fractionations were performed at 0° to 4° C. After the stomachs were cut open and rinsed with tap water, the antral and cardiac regions were removed and the remaining tissue was rinsed three times in saline. The glandular mucosa was removed mechanically, chopped finely in a medium containing 10 mM Tris hydrochloride (pH 7.4) and 250 mM sucrose, and homogenized. The homogenate was centrifuged at 20,000×g for twenty minutes and the pellet discarded. The supernatant was then centrifuged at 150,000×g for ninety minutes and the supernatant discarded. The pellet was resuspended in the Tris-HCl/sucrose medium by homogenization. Part (2 ml) of the resultant microsomal suspension was layered onto a step gradient consisting of 9 ml of 15% sucrose above 12 ml of 30% sucrose, each sucrose solution being buffered with 10 mM Tris hydrochloride (pH 7.4) containing 0.01% sodium azide. The microsomes retained at the 15%-30% sucrose interface, after centrifugation at 250,000×g for sixty minutes, were used as the source of (H^+ +K^+)-ATPase. Microsomal preparations were lyophilized, a process that assured potassium ion permiability, and stored at -10° until used.
(H^+ K^+)-ATPase activity for each test compound was determined, in duplicate, by measuring the release of inorganic phosphate, which was assayed according to the method of J. ChandraRajan and L. Klein. Anal. Biochem., 72, 407-412 (1976). The (H^+ +K^+)-ATPase assay medium consisted of 20 mM Mes-Tris (pH 6.0), 5 mM magnesium chloride, 25 mM sucrose, and 4 mM Tris-ATP with or without 20 mM potassium chloride in a total volume of 2 ml. Microsomal suspensions (20 to 60 mcl, containing about 25 mcg protein) were added to the assay medium, without Tris-ATP, and then preincubated with a test compound for thirty minutes at 37°. The assay was initiated by adding Tris-ATP and the mixture was incubated another thirty minutes at 37°. A 200-mcl aliquot of the assay mixture was then added to 1.4 ml of a solution consisting of 0.1M sodium acetate (pH 4.0) and 10 % sodium dodecylsulfate, followed by the addition of 200 mcl each of 1% ammonium molybdate and 1% ascorbic acid. At least fifteen minutes later, the optical absorbance at 870 nm (which was proportional to inorganic phosphate concentration up to 100 nmoles per tube, as determined by a standard curve) was obtained. Enzyme activity was linear with incubation time.
(H^+ +K^+)-ATPase activity is represented by the difference between the measured activities in the presence of potassium ion (K^+ -stimulated) and in the absence of potassium ion (basal). […] If the IC50 for a test compound could not be determined for the concentration range tested, percent inhibition of (H^+ +K^+)-ATPase was obtained for the compound at 0.1 mM.
As usually defined, the pIC50 is the IC50 on a negative log10 scale, so that one unit is a factor of ten. On to `[O-][S+](Cc1cccn2ccnc12)c1nc2ccccc2[nH]1` (centres unmarked) [Example 3, 2-[(imidazo[1,2-a]pyridin-8-ylmethyl)sulfinyl]-1H-benzimidazole 1/8 hydrate], for which the pIC50 is 5.57. Same read-out and setting: then `Cc1cn2cccc(C[S+]([O-])c3nc4ccccc4[nH]3)c2n1` (centres unmarked) [Example 5], with 5.17. Turning to `COc1ccc2[nH]c([S+]([O-])Cc3cccn4ccnc34)nc2c1` (centres unmarked) [Example 7, 2-[(imidazo[1,2-a]pyridin-8-ylmethyl)sulfinyl]-5-methoxy-1H-benzimidazole], the negative-log IC50 (pIC50) was 5.07. In the case of `CCOc1ccc2[nH]c([S+]([O-])Cc3cccn4ccnc34)nc2c1` (centres unmarked) [Example 9, 5-ethoxy-2-[(imidazo[1,2-a]pyridin-8-ylmethyl)sulfinyl]-1H-benzimidazole], the pIC50 is 5.04. Same read-out and setting: in the case of `Cc1cccc2[nH]c([S+]([O-])Cc3cccn4ccnc34)nc12` (centres unmarked) [Example 11, 2-[(imidazo[1,2-a]pyridin-8-ylmethyl)sulfinyl]-4-methyl-1H-benzimidazole] it was 5.21. For `Cc1ccc2[nH]c([S+]([O-])Cc3cccn4ccnc34)nc2c1` (centres unmarked) [Example 13, 2-[(imidazo[1,2-a]pyridin-8-ylmethyl)sulfinyl]-5-methyl-1H-benzimidazole], the negative-log IC50 (pIC50) is 5.51.

Take `Cc1cc2nc([S+]([O-])Cc3cccn4ccnc34)[nH]c2cc1C` (centres unmarked) [Example 15, 2-[(imidazo[1,2-a]pyridin-8-ylmethyl)sulfinyl]-5,6-dimethyl-1H-benzimidazole hydrate]: the pIC50 was 5.32. The same measure, in the same setting: then `COc1cc2nc([S+]([O-])Cc3cccn4ccnc34)[nH]c2cc1OC` (centres unmarked) [Example 17, 2-[(imidazo[1,2-a]pyridin-8-ylmethyl)sulfinyl]-5,6-dimethoxy-1H-benzimidazole], with 4.16; and `[O-][S+](Cc1cccn2ccnc12)c1nc2cc(Cl)ccc2[nH]1` (centres unmarked) [Example 19, 5-chloro-2-[(imidazo[1,2-a]pyridin-8-ylmethyl)sulfinyl]-1H-benzimidazole], with 5.30; and `[O-][S+](Cc1cccn2ccnc12)c1nc2cc(C(F)(F)F)ccc2[nH]1` (centres unmarked) [Example 21, 2-[(imidazo[1,2-a]pyridin-8-ylmethyl)sulfinyl]-5-(trifluoromethyl)-1H-benzimidazole], with 5.47. Same read-out and setting: in the case of `Cc1nc2c(C[S+]([O-])c3nc4ccccc4[nH]3)cccn2c1C` (centres unmarked) [Example 23, 2-[[(2,3-dimethylimidazo[1,2-a]pyridin-8-yl)methyl]sulfinyl]-1H-benzimidazole] it was 5.21; in that of `Cc1cnc2c(C[S+]([O-])c3nc4ccccc4[nH]3)cccn12` (centres unmarked) [Example 25, 2-[[(3-methylimidazo[1,2-a]pyridin-8-yl)methyl]sulfinyl]-1H-benzimidazole hemihydrate1/2CH2 Cl2], 5.40. The same measure, in the same setting: in the case of `[O-][S+](Cc1cccn2cc(-c3ccccc3)nc12)c1nc2ccccc2[nH]1` (centres unmarked) [Example 28, 2-[[(2-phenylimidazo[1,2-a]pyridin-8-yl)methyl]sulfinyl]-1H-benzimidazole 1/4 hydrate] it was less than 4.00.

Consider `[O-][S+](Cc1cccn2c(-c3ccccc3)cnc12)c1nc2ccccc2[nH]1` (centres unmarked) [Example 30, 2-[[(3-phenylimidazo[1,2-a]pyridin-8-yl)methyl]sulfinyl]-1H-benzimidazole hemihydrate], for which the pIC50 was 5.04.

With `O=[N+]([O-])c1ccc(-c2cnc3c(C[S+]([O-])c4nc5ccccc5[nH]4)cccn23)cc1` (centres unmarked) [Example 33, 2-[[[3-(4-nitrophenyl)imidazo[1,2-a]pyridin-8-yl]methyl]sulfinyl]-1H-benzimidazole 1/4 hydrate], the pIC50 was 4.76.

Consider `[O-][S+](Cc1cccn2c(-c3cccc(C(F)(F)F)c3)cnc12)c1nc2ccccc2[nH]1` (centres unmarked) [Example 36, 2-[[[3-[3-(trifluoromethyl)phenyl]imidazo[1,2-a]pyridin-8-yl]methyl]sulfinyl]-1H-benzimidazole], for which the negative-log IC50 (pIC50) is 5.16.

For `Cc1ccc2[nH]c([S+]([O-])Cc3cccn4c(-c5cccc(C(F)(F)F)c5)cnc34)nc2c1` (centres unmarked) [Example 39, 5-methyl-2-[[[3-[3-(trifluoromethyl)phenyl]imidazo[1,2-a]pyridin-8-yl]methyl]sulfinyl]-1H-benzimidazole], the pIC50 is 5.14.

Regarding `[O-][S+](Cc1cccn2c(-c3cccc(C(F)(F)F)c3)cnc12)c1nc2cc(Cl)ccc2[nH]1` (centres unmarked) [Example 42, 5-chloro-2-[[[3-[3-(trifluoromethyl)phenyl]imidazo[1,2-a]pyridin-8-yl]methyl]sulfinyl]-1H-benzimidazole], the pIC50 is 4.82. The same measure, in the same setting: in the case of `[O-][S+](Cc1cccn2c(-c3ccc(C(F)(F)F)cc3)cnc12)c1nc2ccccc2[nH]1` (centres unmarked) [Example 45, 2-[[[3-[4-(trifluoromethyl)phenyl]imidazo[1,2-a]pyridin-8-yl]methyl]sulfinyl]-1H-benzimidazole] it was 5.13. Same read-out and setting: in the case of `[O-][S+](Cc1cccn2c(-c3ccc(C(F)(F)F)cc3)cnc12)c1nc2cc(Cl)ccc2[nH]1` (centres unmarked) [Example 47, 5-chloro-2-[[[3-[4-(trifluoromethyl)phenyl]imidazo[1,2-a]pyridin-8-yl]methyl]sulfinyl]-1H-benzimidazole] it was 4.89. On to `COC(=O)c1ccc(-c2cnc3c(C[S+]([O-])c4nc5ccccc5[nH]4)cccn23)cc1` (centres unmarked) [Example 49, methyl 4-[8-[(1H-benzimidazol-2-ylsulfinyl)methyl]imidazo[1,2-a]pyridin-3-yl]benzoate hydrate], for which the pIC50 is 5.11.

Take `[O-][S+](Cc1cccn2c(-c3ccc(Cl)cc3)cnc12)c1nc2ccccc2[nH]1` (centres unmarked) [Example 52, 2-[[[3-(4-chlorophenyl)imidazo[1,2-a]pyridin-8-yl]methyl]sulfinyl]-1H-benzimidazole]: the pIC50 is 5.26. Same read-out and setting: in the case of `Cc1ccc(-c2cnc3c(C[S+]([O-])c4nc5ccccc5[nH]4)cccn23)cc1` (centres unmarked) [Example 54, 2-[[[3-(4-methylphenyl)imidazo[1,2-a]pyridin-8-yl]methyl]sulfinyl]-1H-benzimidazole] it was 5.49. Still for that read-out and setting: in the case of `[O-][S+](Cc1cccc2nccn12)c1nc2ccccc2[nH]1` (centres unmarked) [Example 56, 2-[(imidazo[1,2-a]pyridin-5-ylmethyl)sulfinyl]-1H-benzimidazole] it was less than 4.00.
